Test results from the supplement of paper PMC10307832.

What was measured:
Assay in all cases: relative viability (nuclei count vs DMSO), 5 days (fraction); higher = more cells survive
[1] = compound: O=C(O)c1ccc2c(c1)nc(Nc1cccc(Cl)c1)c1ccncc12 [Silmitasertib] + Nc1nc2[nH]cc(CCc3ccc(C(=O)N[C@@H](CCC(=O)O)C(=O)O)cc3)c2c(=O)[nH]1 [Pemetrexed] (partner 0.2 µM)
In short: (§1)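 Nuclei were stained with Hoechst during a one-step fixation (final 0.05% Triton X-100, 1% formaldehyde, 1 ug/ml Hoechst) carried out 5 days after dosing, then counted on 4× images. The cells, lung cancer lines in 1536-well plates, had been dosed by pin tool the day after seeding with one drug alone or a fixed anchor-drug dose plus five library-drug doses (not always all listed) in √10 steps. Relative viability is the nuclei count in treated wells divided by that in vehicle wells, and each value is the median of duplicate plates.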

[2] = compound: O=C(O)c1ccc2c(c1)nc(Nc1cccc(Cl)c1)c1ccncc12 [Silmitasertib] + CC(=O)c1c(C)c2cnc(Nc3ccc(N4CCNCC4)cn3)nc2n(C2CCCC2)c1=O [Palbociclib] (partner 0.5 µM)
In short: as §1

[3] = compound: O=C(O)c1ccc2c(c1)nc(Nc1cccc(Cl)c1)c1ccncc12 [Silmitasertib] + CS(=O)(=O)N1CCN(Cc2cc3nc(-c4cccc5[nH]ncc45)nc(N4CCOCC4)c3s2)CC1 [Pictilisib] (partner 1 µM)
In short: as §1

[4] = compound: O=C(O)c1ccc2c(c1)nc(Nc1cccc(Cl)c1)c1ccncc12 [Silmitasertib] + CS(=O)(=O)CCNCc1ccc(-c2ccc3ncnc(Nc4ccc(OCc5cccc(F)c5)c(Cl)c4)c3c2)o1 [Lapatinib] (partner 2 µM)
In short: as §1

[5] = compound: O=C(O)c1ccc2c(c1)nc(Nc1cccc(Cl)c1)c1ccncc12 [Silmitasertib] + CC(C)C[C@H](NC(=O)[C@H](Cc1ccccc1)NC(=O)c1cnccn1)B(O)O [Bortezomib] (partner 0.002 µM)
In short: as §1

| Cell Line | relative viability ([1]; first compound 0.04 µM) | relative viability ([1]; first compound 0.4 µM) | relative viability ([1]; first compound 1.265 µM) | relative viability ([1]; first compound 4 µM) | relative viability ([2]; first compound 0.04 µM) | relative viability ([2]; first compound 0.4 µM) | relative viability ([2]; first compound 1.265 µM) | relative viability ([2]; first compound 4 µM) | relative viability ([3]; first compound 0.04 µM) | relative viability ([3]; first compound 0.4 µM) | relative viability ([3]; first compound 1.265 µM) | relative viability ([3]; first compound 4 µM) | relative viability ([4]; first compound 0.04 µM) | relative viability ([4]; first compound 0.4 µM) | relative viability ([4]; first compound 1.265 µM) | relative viability ([4]; first compound 4 µM) | relative viability ([5]; first compound 0.04 µM) | relative viability ([5]; first compound 1.265 µM) | relative viability ([5]; first compound 4 µM) | relative viability ([5]; first compound 0.4 µM) |
| --- | --- | --- | --- | --- | --- | --- | --- | --- | --- | --- | --- | --- | --- | --- | --- | --- | --- | --- | --- | --- |
| NCI-H358 | 0.186 | 0.164 | 0.18 | 0.131 | 0.133 | 0.128 | 0.134 | 0.125 | 0.375 | 0.324 | 0.322 | 0.288 | 0.448 | 0.57 | 0.507 | 0.35 | – | – | – | – |
| NCI-H441 | 0.289 | – | 0.245 | 0.281 | 0.254 | – | 0.206 | 0.178 | 0.469 | – | 0.285 | 0.315 | – | – | – | – | 0.514 | 0.496 | 0.17 | – |
| NCI-H522 | 0.986 | 0.846 | 1 | 1.15 | 1.02 | 0.801 | 0.903 | 1.04 | – | – | – | – | – | – | – | – | – | – | – | – |
| NCI-H596 | 0.523 | 0.502 | 0.54 | 0.472 | – | – | – | – | 0.393 | 0.384 | 0.36 | 0.336 | 1.06 | 1.04 | 0.833 | 0.977 | 1 | 1.02 | 0.751 | 0.818 |
| NCI-H727 | – | – | – | – | 0.64 | 0.529 | 0.648 | 0.681 | 0.608 | 0.392 | 0.381 | 0.32 | 1.05 | 0.608 | 0.855 | 0.527 | 1 | 0.736 | 0.516 | 0.608 |
| NCI-H1395 | 0.975 | 0.756 | 0.841 | 0.654 | 0.631 | 0.617 | 0.592 | 0.597 | 0.623 | 0.492 | 0.587 | 0.427 | 1.29 | 0.672 | 0.919 | 0.68 | – | – | – | – |
| NCI-H1703 | – | – | – | – | – | – | – | – | 0.25 | 0.291 | 0.228 | 0.252 | 1.27 | 0.868 | 1.01 | 0.892 | 0.352 | 0.294 | 0.193 | 0.278 |
| NCI-H1793 | 1.08 | 0.851 | 0.719 | 0.425 | 0.309 | 0.319 | 0.32 | 0.303 | 0.374 | 0.247 | 0.274 | 0.31 | 0.979 | 0.728 | 0.437 | 0.488 | – | – | – | – |
| NCI-H1944 | 0.551 | 0.447 | 0.615 | 0.77 | 0.335 | 0.359 | 0.314 | 0.383 | 0.361 | 0.442 | 0.364 | 0.381 | 0.826 | 0.807 | 0.822 | 0.816 | – | – | – | – |
| NCI-H2170 | 0.271 | 0.258 | 0.25 | 0.282 | 0.371 | 0.284 | 0.363 | 0.344 | 0.32 | 0.259 | 0.31 | 0.269 | 0.292 | 0.258 | 0.276 | 0.274 | – | – | – | – |
| NCI-H2342 | 0.77 | – | 0.72 | 0.681 | 0.522 | – | 0.494 | 0.495 | – | – | – | – | – | – | – | – | – | – | – | – |
| SK-MES-1 | 1.03 | 1.02 | 0.763 | 0.339 | 0.359 | 0.322 | 0.253 | 0.275 | 0.412 | 0.439 | 0.456 | 0.373 | 0.442 | 0.594 | 0.536 | 0.429 | – | – | – | – |
